Laboratory results as given in ChEMBL document CHEMBL1128134, “Characterization of a continuous fluorogenic assay for calpain I. Kinetic evaluation of peptide aldehydes, halomethyl ketones and (acyloxy)methyl ketones as inhibitors of the enzyme” (Bioorg Med Chem Lett, 1995).

T1: Calpain-1 catalytic subunit (Homo sapiens) (UniProt P07384)
T1 sequence (whole entry): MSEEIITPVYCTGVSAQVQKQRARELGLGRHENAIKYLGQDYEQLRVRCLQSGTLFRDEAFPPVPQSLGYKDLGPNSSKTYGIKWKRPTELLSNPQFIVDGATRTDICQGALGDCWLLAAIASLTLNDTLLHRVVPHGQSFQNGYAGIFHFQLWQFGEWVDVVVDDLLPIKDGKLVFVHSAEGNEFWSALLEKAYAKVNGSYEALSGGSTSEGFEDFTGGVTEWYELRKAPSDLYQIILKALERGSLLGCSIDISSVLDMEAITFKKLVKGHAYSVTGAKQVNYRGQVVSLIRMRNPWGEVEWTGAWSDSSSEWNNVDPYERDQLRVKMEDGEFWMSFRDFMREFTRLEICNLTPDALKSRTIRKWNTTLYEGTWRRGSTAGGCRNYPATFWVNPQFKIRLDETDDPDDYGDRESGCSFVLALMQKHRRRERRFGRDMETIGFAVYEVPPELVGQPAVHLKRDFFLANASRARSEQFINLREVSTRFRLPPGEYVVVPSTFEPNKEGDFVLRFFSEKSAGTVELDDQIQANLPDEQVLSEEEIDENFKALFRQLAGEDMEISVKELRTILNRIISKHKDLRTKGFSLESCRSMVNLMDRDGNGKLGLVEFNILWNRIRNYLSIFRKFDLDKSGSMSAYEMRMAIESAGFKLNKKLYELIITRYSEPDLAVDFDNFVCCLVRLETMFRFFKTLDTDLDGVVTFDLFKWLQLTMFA

B1: Calpain-1 catalytic subunit (Homo sapiens), P07384 (protein)
chain: T1 sequence (whole entry)

Tests used:
[1] = biological target: T1, Calpain-1 catalytic subunit (Homo sapiens); assay: Rate of catalysis as a measure of ability to serve as substrate of Calpain
[2] = Ratio of rate of catalysis to Michaelis-Menten constant was determined
[3] = biological target: Calpain 1 (Homo sapiens) (UniProt P04632+P07384); assay: Apparent second order rate constant for inhibition of calpain-1 by fluorogenic assay.; type: protein-complex assay
[4] = biological target: T1, Calpain-1 catalytic subunit (Homo sapiens); assay: Compound was tested for apparent second order rate constant for inhibition of calpain I in an endpoint (non-continuous) calpain assay
[5] = biological target: Calpain 1 (Homo sapiens, UniProt P07384); assay: Inhibition of Calpain 1 by [3H]acetyl-casein assay; type: protein-complex assay
[6] = substrate: CC(C)C[C@H](NC(=O)OCc1ccccc1)C(=O)N[C@@H](CCCN=C(N)N)C(=O)Nc1ccc2c(C(F)(F)F)cc(=O)oc2c1; assay: (§1) Michaelis-Menten kinetics value as a measure of ability to serve as substrate of Calpain
[7] = substrate: COc1ccc2cccc(NC(=O)[C@@H](CCCN=C(N)N)NC(=O)[C@H](CC(C)C)NC(=O)[C@@H](NC(=O)OCc3ccccc3)C(C)C)c2c1; assay: as §1
[8] = substrate: COc1ccc2cccc(NC(=O)[C@H](CCCN=C(N)N)NC(=O)[C@H](CC(C)C)NC(=O)OCc3ccccc3)c2c1; assay: as §1
[9] = substrate: Cc1cc(=O)oc2cc(NC(=O)[C@@H](CCCCN)NC(=O)[C@H](CC(C)C)NC(=O)[C@@H](NC(=O)OC(C)(C)C)C(C)C)ccc12; assay: as §1
[10] = substrate: Cc1cc(=O)oc2cc(NC(=O)[C@@H](Cc3ccc(O)cc3)NC(=O)[C@H](NC(=O)[C@H](CC(C)C)NC(=O)[C@H](CC(C)C)NC(=O)CCC(=O)O)C(C)C)ccc12; assay: as §1
[11] = substrate: Cc1cc(=O)oc2cc(NC(=O)[C@H](CCCN=C(N)N)NC(=O)[C@H](CC(C)C)NC(=O)OCc3ccccc3)ccc12; assay: as §1
[12] = substrate: Cc1cc(=O)oc2cc(NC(=O)[C@H](NC(=O)[C@H](CC(C)C)NC(=O)[C@H](CC(C)C)NC(=O)CCC(=O)O)C(C)C)ccc12; assay: as §1

Sequence of Calpain 1 (P04632 whole entry, one chain of several): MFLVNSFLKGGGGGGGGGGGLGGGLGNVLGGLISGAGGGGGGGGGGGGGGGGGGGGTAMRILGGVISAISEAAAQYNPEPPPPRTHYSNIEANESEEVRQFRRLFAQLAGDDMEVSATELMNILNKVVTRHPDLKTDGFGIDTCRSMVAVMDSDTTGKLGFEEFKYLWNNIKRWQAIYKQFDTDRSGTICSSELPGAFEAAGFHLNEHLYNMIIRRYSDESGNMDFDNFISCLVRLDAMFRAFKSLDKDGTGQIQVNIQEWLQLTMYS

Molecule | k cat [1] [s⁻¹] | Ratio [2] [M⁻¹ s⁻¹] | also measured
Cc1cc(=O)oc2cc(NC(=O)[C@@H](CCCCN)NC(=O)[C@H](CC(C)C)NC(=O)[C@@H](NC(=O)OC(C)(C)C)C(C)C)ccc12 | 0.49 | 83 | 
CC(C)C[C@H](NC(=O)[C@H]1O[C@@H]1C(=O)O)C(=O)NCCCCN=C(N)N |  |  | k obs / 1 [3]: 2500 M⁻¹ s⁻¹; k obs / 1 [4]: 7500 M⁻¹ s⁻¹
CC(C)C[C@H](NC(=O)OCc1ccccc1)C(=O)N[C@@H](CCCN=C(N)N)C(=O)Nc1ccc2c(C(F)(F)F)cc(=O)oc2c1 | 0.07 | 153 | 
Cc1cc(=O)oc2cc(NC(=O)[C@H](NC(=O)[C@H](CC(C)C)NC(=O)[C@H](CC(C)C)NC(=O)CCC(=O)O)C(C)C)ccc12 | 0.29 | 141 | 
COc1ccc2cccc(NC(=O)[C@H](CCCN=C(N)N)NC(=O)[C@H](CC(C)C)NC(=O)OCc3ccccc3)c2c1 | 0.52 | 1400 | 
Cc1cc(=O)oc2cc(NC(=O)[C@@H](Cc3ccc(O)cc3)NC(=O)[C@H](NC(=O)[C@H](CC(C)C)NC(=O)[C@H](CC(C)C)NC(=O)CCC(=O)O)C(C)C)ccc12 | 0.42 | 262 | 
Cc1cc(=O)oc2cc(NC(=O)[C@H](CCCN=C(N)N)NC(=O)[C@H](CC(C)C)NC(=O)OCc3ccccc3)ccc12 | 0.02 | 105 | 
C[C@H](NC(=O)OCc1ccccc1)C(=O)N[C@H](C=O)Cc1ccccc1 |  |  | IC50 [5]: 140 nM
B1 |  |  | Km [6]: 460 µM; Km [7]: 100 µM; Km [8]: 370 µM; Km [9]: 5.9 mM; Km [10]: 160 µM; Km [11]: 190 µM; Km [12]: 200 µM
